From article PMC7843452, “Novel Hybrids of Podophyllotoxin and Coumarin Inhibit the Growth and Migration of Human Oral Squamous Carcinoma Cells” (Frontiers in Chemistry, 2021)
Where two headings read alike, the source gives them in different places.

Assays:
[1] = tested on: human non-small-cell lung carcinoma A549 cells; parameters: method as in Yang et al., 2019; settings: ref Yang et al., 2019; read-out: IC50 against A549 cells; cited from earlier work
[2] = tested on: human oral squamous carcinoma HSC-2 cells; test: CCK-8 antiproliferative assay, HSC-2; format: cell-based; settings: for IC50: Homo sapiens, read-out: IC50 (μM) HSC-2
Experimental: (§1) The in vitro antiproliferative activities of target compounds were investigated against human oral squamous carcinoma HSC-2, SCC-9, and A253 cells and human renal tubular epithelial HK-2 cells by Cell Counting Kit-8 (CCK-8) assay. The HSC-2, SCC-9, and A253 cell lines were purchased from Cobioer Biosciences (Nanjing, China), and HK-2 cell line was from KeyGen Biotech (Nanjing, China). The cells were placed into 96-well plates. After 24 h, cells were treated with 0.1% DMSO or different doses of test compounds for 72 h at 37°C in a CO2 incubator. Subsequently, 100 μl of CCK-8 test solution was added and incubated for 3 h at 37°C. The absorbance value of each well was measured at 450 nm.

[3] = tested on: human oral squamous carcinoma SCC-9 cells; test: CCK-8 antiproliferative assay, SCC-9; format: cell-based; settings: for IC50: Homo sapiens, read-out: IC50 (μM) SCC-9
Experimental: as §1

[4] = tested on: human oral squamous carcinoma A253 cells; test: CCK-8 antiproliferative assay, A253; format: cell-based; settings: for IC50: Homo sapiens, read-out: IC50 (μM) A253
Experimental: as §1

[5] = tested on: human renal tubular epithelial HK-2 cells; test: CCK-8 assay on normal cells, HK-2; format: cell-based; settings: Homo sapiens, HK-2, 72 h, read-out: IC50 (μM) HK-2
Experimental: as §1

human breast MCF-7 cells = tested on: human breast MCF-7 cells; parameters: method as in Sun et al., 2017; settings: in vitro; ref Sun et al., 2017; read-out: IC50 against MCF-7 cells; cited from earlier work
MGC-803 cells = tested on: MGC-803 cells; parameters: method as in Huang et al., 2017; settings: in vitro; ref Huang et al., 2017; cited from earlier work
NCI-H460 cells = tested on: NCI-H460 cells; parameters: method as in Huang et al., 2017; settings: in vitro; ref Huang et al., 2017; cited from earlier work

SMILES	IC50 (μM) HSC-2 ([2]; CCK-8, 72 h, mean ± SD)	IC50 ([2]; HSC-2, CCK-8, 72 h, mean ± SD) [µM]	IC50 (μM) SCC-9 ([3]; CCK-8, 72 h, mean ± SD)	IC50 ([3]; SCC-9, CCK-8, 72 h, mean ± SD) [µM]	IC50 (μM) A253 ([4]; CCK-8, 72 h, mean ± SD)	IC50 ([4]; A253, CCK-8, 72 h, mean ± SD) [µM]	other results
COc1ccc(-c2coc3cc(OCC(=O)OC4c5cc6c(cc5C(c5cc(OC)c(OC)c(OC)c5)C5C(=O)OCC45)OCO6)ccc3c2=O)cc1 (centres unmarked) [compound 6]	–	–	–	–	–	–	IC50 [1]: 753 ± 173 nM
COc1cc([C@@H]2c3cc4c(cc3[C@H](O)[C@H]3COC(=O)[C@H]23)OCO4)cc(OC)c1OC [compound 1, Podophyllotoxin]	–	–	–	–	–	–	IC50 ([2]; HSC-2, 72 h): 0.011 ± 0.003 µM; IC50 ([3]; SCC-9, 72 h): 0.009 ± 0.001 µM; IC50 ([4]; A253, 72 h): 0.01 ± 0.001 µM; IC50 [5]: 0.04 ± 0.006 µM
COc1cc(C2c3cc4c(cc3C(OC(=O)CN3CCN(c5ccc(Cl)c(Cl)c5)CC3)C3COC(=O)C23)OCO4)cc(OC)c1OC (centres unmarked) [compound 5]	–	–	–	–	–	–	IC50 (human breast MCF-7 cells): 2780 ± 150 nM
O=c1ccc2ccc(O)cc2o1 [compound 8, 7-hydroxycoumarin]	no antiproliferative effect	> 100	no antiproliferative effect	> 100	no antiproliferative effect	> 100	–
Cc1cc(=O)oc2c(CN3CCN(C(=O)Nc4ccc(Br)c(F)c4)CC3)c(O)ccc12 [compound 10]	–	–	–	–	–	–	IC50 (MGC-803 cells): 2130 ± 750 nM; IC50 (NCI-H460 cells): 1860 ± 730 nM
Cc1cc(=O)oc2cc(O)ccc12 [compound 7, 4-methylumbelliferone]	no antiproliferative effect	> 100	no antiproliferative effect	> 100	no antiproliferative effect	> 100	–
